Data on 13 molecules can be found in patent publication US10369138B2, “Monobactam organic compounds for the treatment of bacterial infections” (Novartis AG, priority 2014, dated 2019).

Structures are written as SMILES. In brackets after ≈: the same amount, converted by molar mass.

Assay [1] concerns E. coli strain 25922. The assay is described as follows: MIC by broth microdilution, E. coli strain 25922. It is filed as cell-based. Particulars: Escherichia coli, 25922, E. coli strain 25922; read-out: Ec 25922 (MIC). As for the experimental part: (§1) Bacterial isolates were cultivated from −70° C. frozen stocks by two consecutive overnight passages at 35° C. in ambient air on 5% blood agar (Remel, Lenexa, Kans.). Quality control and P. aeruginosa ATCC 27853) is from the American Type Culture Collection (ATCC; Rockville, Md.) and PAO1 was received from Dr. K. Poole.
Minimal Inhibitory Concentrations (MICs) were determined by the broth microdilution method in accordance with Clinical and Laboratories Institute (CLSI) guidelines. In brief, fresh overnight bacterial cultures were suspended in sterile saline, and adjusted to a 0.5 McFarland turbidity standard. Bacterial suspensions were then diluted in cation adjusted Mueller-Hinton Broth (MHB II; BBL) to yield a final inoculum of approximately 5×10^5 colony-forming units (CFU)/mL. A master plate of antibiotics was prepared at a concentration equivalent to hundred-fold the highest desired final concentration in 100% dimethyl sulfoxide (DMSO). The master antibiotic plate was then diluted by serial twofold dilution with a multichannel pipette. The resulting dilution series of compounds were diluted 1:10 with sterile water leading to a 10% DMSO final concentration. A volume of 10 μL of the drug dilution series was transferred to 96-well assay plates. Assay plates were inoculated with 90 μL of bacterial suspensions and incubated at 35-37° C. for 20 hrs. The assay plates were read using a microtiter plate reader (Molecular Devices) at 600 nm as well as by visual observation with a reading mirror. The lowest concentration of the compound that prevented visible growth was recorded as the MIC. Performance of the assay was monitored by testing aztreonam against laboratory quality control strains in accordance with guidelines of the CLSI.

Assay [2] concerns E. coli containing KPC-2. The experiment in a line: MIC by broth microdilution, E. coli containing KPC-2 (Ec KPC2 Iso). It is filed as cell-based. Particulars: Escherichia coli, read-out: Ec KPC2 Iso (MIC), E. coli containing KPC-2 (carbapenemase from Klebsiella pneumoniae). On the procedure:
as §1
Strain NB27273 (BW25113 pspB::Km^r) was obtained from the Keio transposon insertion collection. The strain has the pspB gene replaced by a kanamycin resistance marker (BW25113 pspB::Km^r). This strain was cured of the transposon in pspB via FLP recombinase using published methodology. The resulting strain, BW25113 pspB, was used as a host for multicopy vectors expressing key β-lactamases. Multicopy plasmids directing constitutive expression of β-lactamases were established as follows: Synthetic, codon optimized genes encoding E. coli KPC2 and SHV12 β-lactamases were made by DNA2.0 (Palo Alto, Calif.). Each of the synthetic fragments were designed to contain NotI and NcoI restriction sites at their termini, allowing ligation into a NotI/NcoI digested pET28a(+) derivative for protein expression. […] The codon optimized nucleotide sequences and relevant primer recognition information is shown below:
The PCR products were then digested with XhoI and EcoRI and ligated into similarly digested plasmid pAH63-pstS(BlaP). Plasmid pAH63-pstS(BlaP) is a derivative of plasmid pAH63 (J Bacteriol: 183(21): 6384-6393) made by cloning the TEM-1 (bla) promoter and signal peptide encoding region from plasmid pBAD (J Bacteriol. 1995 July 177(14):4121-30) into plasmid pAH63. This fragment was PCR amplified from pBAD using primer pair E192 (ttca[…]) (SEQ ID NO:13) and E194 ([…]) (SEQ ID NO:14), digested with PstI and BamHI and inserted into similarly digested plasmid pAH63. Therefore, expression of β-lactamases from pAH63-pstS(BlaP) based constructs is constitutive and the signal sequence is provided to direct these proteins to the periplasm. Plasmid pAH63 based vectors are used for insertion into the genome in single copy, however, to provide higher expression levels to allow more sensitive detection of the susceptibility of compounds to the β-lactamases, the expression inserts contained in these vectors were moved to the replicative multicopy vector pBAD-Kan (J Bacteriol. 1995 July 177(14):4121-30). To accomplish this, the inserts encompassing the β-lactamase genes, with the associated TEM promoter and signal sequences, were PCR amplified from their corresponding vectors using primer E269 (ccg[…]) (SEQ ID NO:15) and E202 (aatc[…]) (SEQ ID NO:16) for the KPC2 construct and E204 (aatc[…]) (SEQ ID NO:17) for the SHV12 construct. These fragments were then digested with XbaI and EcoRI, and each was inserted into pBAD18-kan that had been digested with the same enzymes to generate a pair of multicopy vectors expressing KPC2 and SHV12 respectively. These vectors were transformed into BW25113 pspB to generate strains NB27273-CDY0033 (expressing KPC2) and NB27273-CDY0030 (expressing SHV12). The pBAD18-kan vector also contains the TEM promoter region and signal sequence, (but lacks any intact β-lactamase genes) and was transformed into BW25113 pspB using standard protocols to generate the control strain NB27273-CDY0026. Expression of the β-lactamases was confirmed by verifying decreased susceptibility to example test antibiotics that are known substrates of KPC2 or SHV12. Susceptibility Testing
Minimal Inhibitory Concentrations (MICs) were determined by the broth microdilution method in accordance with Clinical and Laboratories Institute (CLSI) guidelines. In brief, fresh overnight bacterial cultures were suspended in sterile saline, and adjusted to a 0.5 McFarland turbidity standard. Bacterial suspensions were then diluted in cation adjusted Mueller-Hinton Broth (MHB II; BBL) to yield a final inoculum of approximately 5×10^5 colony-forming units (CFU)/mL. […]

As for `Nc1nc(/C(=N/OC2(C(=O)O)CCC2)C(=O)N[C@@H]2C(=O)N(S(=O)(=O)O)[C@@H]2Cn2cncn2)cs1` [Example 32, 1-(((Z)-(2-(((2R,3S)-2-((1H-1,2,4-triazol-1-yl)methyl)-4-oxo-1-sulfoazetidin-3-yl)amino)-1-(2-aminothiazol-4-yl)-2-oxoethylidene)amino)oxy)cyclobutanecarboxylic acid], the minimal inhibitory concentration (MIC) amounted to 2 µg/mL (≈ 3.89 µM) in assay [1] and 1 µg/mL (≈ 1.94 µM) in assay [2].
Take `CC(C)(O/N=C(\C(=O)N[C@@H]1C(=O)N(S(=O)(=O)O)[C@@H]1Cn1ncc(CC#N)n1)c1csc(N)n1)C(=O)O` [Example 33, 2-(((Z)-(1-(2-aminothiazol-4-yl)-2-(((2R,3S)-2-((4-(cyanomethyl)-2H-1,2,3-triazol-2-yl)methyl)-4-oxo-1-sulfoazetidin-3-yl)amino)-2-oxoethylidene)amino)oxy)-2-methylpropanoic acid]: the minimum inhibitory concentration (MIC) in assay [1] and in assay [2] was 2 µg/mL (≈ 3.69 µM) in each case.
Consider `CC(C)(O/N=C(\C(=O)N[C@@H]1C(=O)N(S(=O)(=O)O)[C@@H]1Cn1ccc(N)n1)c1csc(N)n1)C(=O)O` [Example 34, 2-(((Z)-(2-(((2R,3S)-2-((3-amino-1H-pyrazol-1-yl)methyl)-4-oxo-1-sulfoazetidin-3-yl)amino)-1-(2-aminothiazol-4-yl)-2-oxoethylidene)amino)oxy)-2-methylpropanoic acid], for which the minimal inhibitory concentration (MIC) in assay [1] and in assay [2] was greater than 64 µg/mL throughout.
On to `CC(C)(O/N=C(\C(=O)N[C@@H]1C(=O)N(S(=O)(=O)O)[C@@H]1Cn1cc(N)cn1)c1csc(N)n1)C(=O)O` [Example 35, 2-(((Z)-(2-(((2R,3S)-2-((4-amino-1H-pyrazol-1-yl)methyl)-4-oxo-1-sulfoazetidin-3-yl)amino)-1-(2-aminothiazol-4-yl)-2-oxoethylidene)amino)oxy)-2-methylpropanoic acid], for which the minimal inhibitory concentration (MIC) came to 2 µg/mL (≈ 3.87 µM) in assay [1] and 1 µg/mL (≈ 1.94 µM) in assay [2].
The corresponding values for `CC(C)(O/N=C(\C(=O)N[C@@H]1C(=O)N(S(=O)(=O)O)[C@@H]1Cn1ncc(C[N+]2(C)CCCC2)n1)c1csc(N)n1)C(=O)O` [Example 36, (2R,3S)-3-((Z)-2-(2-aminothiazol-4-yl)-2-(((2-carboxypropan-2-yl)oxy)imino)acetamido)-2-((4-((1-methylpyrrolidin-1-ium-1-yl)methyl)-2H-1,2,3-triazol-2-yl)methyl)-4-oxoazetidine-1-sulfonate] are 2 µg/mL and 1 µg/mL.
The corresponding values for `CC(C)(O/N=C(\C(=O)N[C@@H]1C(=O)N(S(=O)(=O)O)[C@@H]1Cn1ncc(COC(N)=O)n1)c1csc(N)n1)C(=O)O` [Example 37, 2-(((Z)-(1-(2-aminothiazol-4-yl)-2-(((2R,3S)-2-((4-((carbamoyloxy)methyl)-2H-1,2,3-triazol-2-yl)methyl)-4-oxo-1-sulfoazetidin-3-yl)amino)-2-oxoethylidene)amino)oxy)-2-methylpropanoic acid] are 2 µg/mL (≈ 3.47 µM) and 2 µg/mL (≈ 3.47 µM).
The corresponding values for `CC(C)(O/N=C(\C(=O)N[C@@H]1C(=O)N(S(=O)(=O)O)[C@@H]1Cn1ncc(COS(=O)(=O)O)n1)c1csc(N)n1)C(=O)O` [Example 38, 2-(((Z)-(1-(2-aminothiazol-4-yl)-2-oxo-2-(((3S,4R)-2-oxo-1-sulfo-4-((4-((sulfooxy)methyl)-2H-1,2,3-triazol-2-yl)methyl)azetidin-3-yl)amino)ethylidene)amino)oxy)-2-methylpropanoic acid] are 8 µg/mL (≈ 13.1 µM) and 4 µg/mL (≈ 6.53 µM).
Consider `CC(C)(O/N=C(\C(=O)N[C@@H]1C(=O)N(S(=O)(=O)O)[C@@H]1CN1CCN=C1N)c1csc(N)n1)C(=O)O` [Example 39, 2-(((Z)-(2-(((2R,3S)-2-((2-amino-4,5-dihydro-1H-imidazol-1-yl)methyl)-4-oxo-1-sulfoazetidin-3-yl)amino)-1-(2-aminothiazol-4-yl)-2-oxoethylidene)amino)oxy)-2-methylpropanoic acid], for which the results for the MIC in assay [1] and in assay [2] were 64 µg/mL (≈ 123 µM) and greater than 64 µg/mL, respectively.
The corresponding values for `CC(C)(O/N=C(\C(=O)N[C@@H]1C(=O)N(S(=O)(=O)O)[C@@H]1CN1CCN/C1=N\C#N)c1csc(N)n1)C(=O)O` [Example 40, 2-(((Z)-(1-(2-aminothiazol-4-yl)-2-(((2R,3S)-2-(((E)-2-(cyanoimino)imidazolidin-1-yl)methyl)-4-oxo-1-sulfoazetidin-3-yl)amino)-2-oxoethylidene)amino)oxy)-2-methylpropanoic acid] are 2 µg/mL (≈ 3.68 µM) and 2 µg/mL (≈ 3.68 µM).
The corresponding values for `CC(C)(O/N=C(\C(=O)N[C@@H]1C(=O)N(S(=O)(=O)O)[C@@H]1Cn1cc(CCN)nn1)c1csc(N)n1)C(=O)O` [Example 41, 2-(((Z)-(2-(((2R,3S)-2-((4-(2-aminoethyl)-1H-1,2,3-triazol-1-yl)methyl)-4-oxo-1-sulfoazetidin-3-yl)amino)-1-(2-aminothiazol-4-yl)-2-oxoethylidene)amino)oxy)-2-methylpropanoic acid] are 1 µg/mL (≈ 1.83 µM) and 2 µg/mL (≈ 3.67 µM).
The corresponding values for `CC(C)(O/N=C(\C(=O)N[C@@H]1C(=O)N(S(=O)(=O)O)[C@@H]1Cn1cc(CCN2CCNCC2)nn1)c1csc(N)n1)C(=O)O` [Example 42, 2-(((Z)-(1-(2-aminothiazol-4-yl)-2-oxo-2-(((3S,4R)-2-oxo-4-((4-(2-(piperazin-1-yl)ethyl)-1H-1,2,3-triazol-1-yl)methyl)-1-sulfoazetidin-3-yl)amino)ethylidene)amino)oxy)-2-methylpropanoic acid] are 1.4 µg/mL (≈ 2.28 µM) and 2 µg/mL (≈ 3.25 µM).
`CC(C)(O/N=C(\C(=O)N[C@@H]1C(=O)N(S(=O)(=O)O)[C@@H]1Cn1cc(CNC(=O)C[N+](C)(C)C)nn1)c1csc(N)n1)C(=O)O` [Example 43, (3S,4R)-3-((Z)-2-(2-aminothiazol-4-yl)-2-(((2-carboxypropan-2-yl)oxy)imino)acetamido)-2-oxo-4-((4-((2-(trimethylammonio)acetamido)methyl)-1H-1,2,3-triazol-1-yl)methyl)azetidine-1-sulfonate]: the minimal inhibitory concentration (MIC) in assay [1] and in assay [2] was 2 µg/mL each time.
As for `CC(C)(O/N=C(\C(=O)N[C@@H]1C(=O)N(S(=O)(=O)O)[C@@H]1Cn1cc(CN)nn1)c1csc(N)n1)C(=O)O` [Example 44, 2-(((Z)-(2-(((2R,3S)-2-((4-(aminomethyl)-1H-1,2,3-triazol-1-yl)methyl)-4-oxo-1-sulfoazetidin-3-yl)amino)-1-(2-aminothiazol-4-yl)-2-oxoethylidene)amino)oxy)-2-methylpropanoic acid], the minimum inhibitory concentration (MIC) in assay [1] was found to be 0.67 µg/mL (≈ 1.26 µM); in assay [2] it was 1.5 µg/mL (≈ 2.82 µM).
